Experiments:
[1] = Linear Polarisation Resistance (LPR) Bubble test, corrosion rate
Protocol: The corrosion inhibition (CI) performance of compounds and compositions of the invention and the performance of comparative examples was tested by means of Linear Polarisation Resistance (LPR) Bubble test measurements.
In general, the LPR Bubble test method uses a test cell, typically made from glass, which is fitted with a probe containing electrodes which are connected to an electrochemical measurement system and associated software. The cell is also fitted with a gas inlet and frit to allow constant purging with CO2 gas. The cell can be loaded with test fluids, typically brine or a combination of brine and a suitable oil phase. The liquids may be stirred, typically at low or moderate speeds, or may be static. The instantaneous rate of corrosion can be measured throughout the experiment by means of the electrochemical probe which extends into the water phase. Other experiments, such as a cyclic sweep, or cyclic polarisation measurement, can also be performed.
In our experiments, the LPR cells were loaded with 95 parts of water (brine) and 5 parts kerosene. The test temperature was 50° C. in all experiments, while details of the water phase pH values relevant to each water composition are given in this Table. The cells were continuously purged with CO2 gas and a stirring speed of 100 rpm was used.
To perform the test, the electrode was allowed to pre-corrode for 2 hours, after which a test corrosion inhibitor composition was added to the kerosene phase. The test was then continued for a total of approximately 14 hours.

[2] = standard testing procedures for biodegradability
Skeletonema costatum = assay: ISO 10253 1998 water quality marine algal growth inhibition test; type: cell-based
Protocol: Toxicity (EC50) was measured by a standard test: ISO 10253 1998 water quality—marine algal growth inhibition test with Skeletonema costatum.

[3] = Table 5, Brine A, 10 ppm, blends also contain ethoxylated fatty acid ester and Na thiosulfate
[4] = Brine B, 50° C., 10 ppm test chemical with sodium thiosulfate

CCCCCCCCCC[N+](C)(C)CCCCCCCCCC [Mixture E]
% Inhibition [1, 3]: 99.8%
Final corrosion rate [1, 3]: 0.009 mmpy

O=C([O-])c1ccccc1.[Na+] [sodium benzoate]
biodegraded ([2]; after 7 days): about 85.5%
biodegraded ([2]; after 14 days): about 95%
biodegraded ([2]; after 28 days): 100%

Na Oleyl amphoacetate
% Inhibition ([1]; Brine A, 50° C., 10 ppm test chemical with sodium thiosulfate): 96.81%
Final corrosion rate ([1]; Brine A, 50° C., 10 ppm test chemical with sodium thiosulfate, 95:5 brine:kerosene, CO2 purge): 0.12 mmpy
% Inhibition [1, 4]: >99.99%
Final corrosion rate [1, 4]: 0.00014 mmpy
Algae toxicity (EC50) (Skeletonema costatum): 2.0 µg/mL

— patent US10000641B2, “Method and composition for preventing corrosion of metal surfaces” (Ecolab USA Inc., priority 2010, dated 2018)
